Experimental data taken from US9445998B2, “Pharmaceutical dosage forms comprising a low-solubility drug and a polymer” (Bend Research, Inc., priority 2004, dated 2016).
Like-named read-outs stand apart in the source and are kept apart here.

Key:
[1] = type: physicochemical; details: not told, 100 μgA/mL, pH 6.5
Protocol: An Accurel® PP 1E microporous polypropylene membrane was obtained from Membrana GmbH (Wuppertal, Germany). The membrane was washed in isopropyl alcohol and rinsed in methanol in a sonicating bath for 1 minute at ambient temperature, and then allowed to air dry at ambient temperature. The feed side of the membrane was then plasma-treated to render it hydrophilic by placing a sample of the membrane in a plasma chamber. The atmosphere of the plasma chamber was saturated with water vapor at a pressure of 550 mtorr. A plasma was then generated using radio frequency (RF) power inductively coupled into the chamber via annular electrodes at a power setting of 50 watts for 45 seconds. The contact angle of a drop of water placed on the surface of the plasma-treated membrane was less than about 40°. The contact angle of a drop of water placed on the permeate side of the same membrane was greater than about 110°.
A permeate reservoir was formed by gluing a sample of the plasma-treated membrane to a glass tube having an inside diameter of about 1 inch (2.54 cm) using an epoxy-based glue (LOCTITE® E-30CL HYSOL® from Henkel Loctite Corp, Rocky Hill, Conn.). The feed-side of the membrane was oriented so that it was on the outside of the permeate reservoir, while the permeate-side of the membrane was oriented so that it was on the inside of the reservoir. The effective membrane area of the membrane on the permeate reservoir was about 4.9 cm^2. The permeate reservoir was placed into a glass feed reservoir. The feed reservoir was equipped with a magnetic stir bar and the reservoir was placed on a stir plate and the stir rate was set to 100 rpm during the test. The apparatus was placed into a chamber maintained at 37° C. for the duration of the test. Further details of the test apparatus and protocols are presented in co-pending U.S. Patent Application Ser. No. 60/557,897, entitled “Method and Device for Evaluation of Pharmaceutical Compositions,” filed Mar. 30, 2004, incorporated herein by reference.
To form the feed solution, a 1.429 mg (0.5 mgA) sample of CC-1 was weighed into a feed reservoir. (As used herein, “mgA” is milligrams of active drug, reported as the free base, non-salt form, non-hydrate drug molecule.) To this was added 5 mL of the MFD solution previously described, consisting of PBS solution containing 7.3 mM sodium taurocholic acid and 1.4 mM of 1-palmitoyl-2-oleyl-sn-glycero-3-phosphocholine (0.5% NaTC/POPC). […] The feed solution was mixed using a vortex mixer for 1 minute. Before the membrane contacted the feed solution, 5 mL of 60 wt % decanol in decane was placed into the permeate reservoir. Time zero in the test was when the membrane was placed in contact with the feed solution. A […] aliquot of the permeate solution was collected at the times indicated. Samples were then diluted in […] IPA and analyzed using HPLC.
The maximum flux of drug across the membrane (in units of μgA/cm^2-min) was determined by performing a least-squares fit to the data in Table 4 from 0 to 60 minutes to obtain the slope (CC-1: 0.26 μgA/mL-min; Control 1A: 0.13 μgA/mL-min; Control 1B: 0.07 μgA/mL-min), multiplying the slope by the permeate volume (5 mL), and dividing by the membrane area (4.9 cm^2).

[2] = Dissolution in phosphate buffered saline at pH 6.5 (ziprasidone); type: physicochemical; details: PBS pH 6.5, at equilibrium; drug crystallizes as the free base form
From the text: (§1) An example of a drug having a crystalline highly soluble salt form is ziprasidone. Ziprasidone hydrochloride monohydrate has a solubility of about 10 μgA/mL (expressed as the free base) in water, whereas the free base form has a solubility of less than about 0.2 μgA/mL under the same conditions. Thus, crystalline ziprasidone hydrochloride is a solubility-improved form relative to the crystalline free base form of ziprasidone.
An appropriate MFD solution is the same PBS solution wherein there is also present 7.3 mM sodium taurocholic acid and 1.4 mM of 1-palmitoyl-2-oleyl-sn-glycero-3-phosphocholine.

Solubility in water = type: physicochemical; details: expressed as the free base, listed as free base form
From the text: as §1

[3] = Microcentrifuge dissolution test in MFD solution; type: physicochemical; design: AUC: concentration or dose not given beside the values; details: for Dissolved Ziprasidone Concentration / AUC: MFD solution pH 6.5, 37° C.; for Dissolved Ziprasidone Concentration: 200 μgA/mL if all dissolved
Protocol: A microcentrifuge dissolution test was performed to verify that ziprasidone hydrochloride monohydrate is a solubility-improved form of ziprasidone. For this test, a sufficient amount of ziprasidone hydrochloride monohydrate was added to a microcentrifuge test tube so that the concentration of ziprasidone would have been 200 μgA/mL, if all of the ziprasidone had dissolved. The tests were run in duplicate. The tubes were placed in a 37° C. temperature-controlled chamber, and 1.8 mL MFD solution at pH 6.5 and 290 mOsm/kg was added to each respective tube. The samples were quickly mixed using a vortex mixer for about 60 seconds. The samples were centrifuged at 13,000 G at 37° C. for 1 minute prior to collecting a sample. The resulting supernatant solution was then sampled and diluted 1:5 (by volume) with methanol. Samples were analyzed by high-performance liquid chromatography (HPLC) at a UV absorbance of 315 nm using a Zorbax RxC8 Reliance column and a mobile phase consisting of 55% (50 mM potassium dihydrogen phosphate, pH 6.5)/45% acetonitrile. Drug concentration was calculated by comparing UV absorbance of samples to the absorbance of drug standards. The contents of each tube were mixed on the vortex mixer and allowed to stand undisturbed at 37° C. until the next sample was taken. Samples were collected at 4, 10, 20, 40, 90, and 1200 minutes following administration to the MFD solution.
A similar test was performed with the crystalline ziprasidone free base as a control, and a sufficient amount of material was added so that the concentration of compound would have been 200 μgA/mL, if all of the ziprasidone had dissolved.
The concentrations of ziprasidone obtained in these tests were used to determine the maximum dissolved concentration of ziprasidone (“MDC90”) and the area under the concentration-versus-time curve (“AUC90”) during the initial ninety minutes.

O=C1Cc2cc(CCN3CCN(c4nsc5ccccc45)CC3)c(Cl)cc2N1 [Ziprasidone Free Base, ziprasidone]
Ziprasidone Concentration in Permeate ([1]; 0 min): 0.0 μgA/mL
Maximum Flux of Ziprasidone [1]: 0.07 μgA/cm^2-min
Ziprasidone Concentration in Permeate ([1]; 20 min): 0.0 μgA/mL
Ziprasidone Concentration in Permeate ([1]; 40 min): 3.3 μgA/mL
Ziprasidone Concentration in Permeate ([1]; 60 min): 3.4 μgA/mL
Ziprasidone Concentration in Permeate ([1]; 90 min): 5.4 μgA/mL
Ziprasidone Concentration in Permeate ([1]; 120 min): 6.8 μgA/mL
Ziprasidone Concentration in Permeate ([1]; 180 min): 9.2 μgA/mL
Ziprasidone Concentration in Permeate ([1]; 245 min): 11.5 μgA/mL
Ziprasidone Concentration in Permeate ([1]; 360 min): 14.7 μgA/mL
equilibrium solubility [2]: about 0.2 μgA/mL
solubility in water (Solubility in water): less than 0.2 μgA/mL
Dissolved Ziprasidone Concentration ([3]; time 4 min): 1 μgA/mL
Dissolved Ziprasidone Concentration ([3]; time 10 min): 1 μgA/mL
Dissolved Ziprasidone Concentration ([3]; time 20 min): 1 μgA/mL
Dissolved Ziprasidone Concentration ([3]; time 40 min): 2 μgA/mL
Dissolved Ziprasidone Concentration ([3]; time 90 min): 1 μgA/mL
Dissolved Ziprasidone Concentration ([3]; time 1200 min): 2 μgA/mL
AUC ([3]; up to time 4 min): 3 min-μgA/mL
AUC ([3]; up to time 10 min): 11 min-μgA/mL
AUC ([3]; up to time 20 min): 23 min-μgA/mL
AUC ([3]; up to time 40 min): 51 min-μgA/mL
AUC ([3]; up to time 90 min): 120 min-μgA/mL
AUC ([3]; up to time 1200 min): 2000 min-μgA/mL
AUC90 ([3]; area under the concentration-versus-time curve during the initial ninety minutes, MFD solution): 120 min·µgA/mL
MDC90 ([3]; maximum dissolved concentration during the initial ninety minutes, MFD solution): 2 µgA/mL
